Test results as given in PubChem BioAssay (NCI).
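Compound exposure: 48 hours, 5 concentrations, 96-well plates. At the TGI there is no net growth.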

What was measured:
Assay in all cases: NCI anticancer screen, dose series, 48 h
[1] = tested on: A549 NSCLC
[2] = tested on: CAKI-1 renal
[3] = tested on: CCRF-CEM leukemia
[4] = tested on: COLO 205 colon
[5] = tested on: HCT-116 colon
[6] = tested on: HL-60(TB) leukemia
[7] = tested on: IGROV1 ovarian
[8] = tested on: KM12 colon
[9] = tested on: LOX IMVI melanoma
[10] = tested on: MALME-3M melanoma
[11] = tested on: NCI-H226 lung
[12] = tested on: SF-268 CNS
[13] = tested on: UACC-62 melanoma
[14] = tested on: UO-31 renal
[15] = tested on: MDA-MB-435
[16] = tested on: NCI/ADR-RES ovarian
[17] = tested on: RPMI-8226 leukemia
[18] = tested on: SK-MEL-28 melanoma
[19] = tested on: HS 578T breast
[20] = tested on: SF-539 CNS

Structure (SMILES)	TGI [1] [µM]	TGI [2] [µM]	TGI [3] [µM]	TGI [4] [µM]	TGI [5] [µM]	TGI [6] [µM]	TGI [7] [µM]	TGI [8] [µM]	TGI [9] [µM]	TGI [10] [µM]	TGI [11] [µM]	TGI [12] [µM]	TGI [13] [µM]	TGI [14] [µM]	TGI [15] [µM]	TGI [16] [µM]	TGI [17] [µM]	TGI [18] [µM]	TGI [19] [µM]	TGI [20] [µM]
COC(=O)C(C(=O)C(=O)Nc1ccc(C)cc1C)c1csc(-n2nc(-c3ccccc3)cc2-c2ccccc2)n1 (stereo unspecified)	> 100	> 100	> 100	> 100	> 100	> 100	> 100	> 100	> 100	> 100	> 100	> 100	> 100	> 100	–	–	–	–	–	–
CCCCc1ccc(-n2sc3ncc(-c4ccccc4)cc3c2=O)cc1	> 100	> 100	> 100	> 100	> 100	> 100	> 100	> 100	> 100	–	> 100	–	> 100	> 100	> 100	> 100	> 100	> 100	–	–
CC(=O)NC1(NC(C)=O)C2CC(C1Cc1ccccc1)C(C)(C)C2C (stereo unspecified)	> 100	> 100	> 100	> 100	> 100	> 100	> 100	> 100	–	> 100	> 100	> 100	> 100	> 100	> 100	–	–	> 100	> 100	> 100
CCC1=CCN(c2cc(C)ccn2)OC1c1ccccc1 (stereo unspecified)	> 100	> 100	> 100	> 100	> 100	41.8	> 100	> 100	> 100	80.8	> 100	> 100	> 100	> 100	–	–	67.1	77.1	–	> 100
COc1ccc(-c2c(-c3ccc(OC)cc3)n3c(=O)n(C)c(=O)n23)cc1	> 100	> 100	> 100	> 100	> 100	–	> 100	> 100	> 100	> 100	> 100	–	> 100	> 100	> 100	89.9	> 100	> 100	–	72.9
N#CCCN(CCC#N)c1ccc(/C=C2\N=C(c3ccccc3)N(c3ccc(C(=O)O)cc3)C2=O)cc1	> 100	–	–	> 100	> 100	–	53.3	31	93.2	–	95.5	61.6	67.5	> 100	> 100	> 100	> 100	> 100	58.5	61.5
COc1ccc2oc(S(=O)(=O)N3CC(CCl)c4ccc(N)cc43)cc2c1 (stereo unspecified)	> 100	> 86.3	12.7	14.9	> 8.26	0.454	> 34.1	6.02	> 53.1	> 100	1.77	> 100	> 100	> 100	–	> 72	> 100	> 100	> 100	> 41.4
OC1=CN=COc2ccccc21	> 100	–	> 100	> 100	> 100	> 100	> 100	> 100	> 100	> 100	–	> 100	> 100	> 100	–	–	> 100	> 100	–	> 100
Cc1ccc(S(=O)(=O)CNC(=O)C(O)(O)C(F)(F)F)cc1	> 100	> 100	> 100	> 100	> 100	> 100	> 100	> 100	> 100	> 100	–	> 100	> 100	> 100	> 100	> 100	> 100	> 100	> 100	> 100
CC(=O)c1ccc(NC(=O)C(=O)C(C(=O)/C=C/c2ccccc2)C2OC(=O)c3ccccc32)cc1 (stereo unspecified)	> 100	> 100	> 100	> 100	> 100	> 100	> 100	> 100	> 100	> 100	> 100	> 100	> 100	> 100	–	–	> 100	> 100	–	> 100
COC(=O)CCC1(CCC(=O)OC)CCCCCCC(CCC(=O)OC)(CCC(=O)OC)C(=O)C1=O	> 100	> 100	–	> 100	> 100	–	> 100	> 100	> 100	> 100	> 100	> 100	> 100	76.7	> 100	> 100	> 100	> 100	> 100	> 100
O=c1cc(-c2ccccc2)[nH]c2cc(F)cc(F)c12	> 100	> 100	> 100	38.9	> 100	> 100	> 100	> 100	> 100	79.4	80.5	> 100	63.9	> 100	–	–	> 100	> 100	–	85.5
CCCCCCC(O)CC[C@H]1CCC[C@@H](C)N1 (stereo partly specified)	> 100	> 100	> 100	> 31.6	> 100	> 100	> 100	< 10	> 100	> 100	> 100	> 31.6	> 100	> 100	–	–	> 100	> 31.6	–	> 100
COC/N=C(\NC#N)NCOC	> 100	> 100	> 100	> 85.1	> 100	> 100	> 100	> 100	> 95.8	> 100	> 100	> 100	> 100	> 100	–	–	> 70.8	> 100	–	> 100
